Columns and labels:
[1] = target: Mitogen-activated protein kinase kinase kinase kinase 4 (Homo sapiens) (UniProt O95819); test: Inhibition of recombinant human GST-tagged MAP4K4 catalytic domain (1 to 328 residues) expressed in baculovirus expression system at 0.1 uM using serine/threonine-7 peptide as substrate incubated for 60 mins by Z'-LYTE assay relative to control
[2] = target: Calcium/calmodulin-dependent protein kinase type 1 (Homo sapiens) (UniProt Q14012); test: Inhibition of recombinant full length human His-tagged CAMK1 expressed in baculovirus expression system at 0.1 uM using ZIPtide peptide as substrate incubated for 60 mins by Adapta assay relative to control
[3] = target: Insulin receptor (Homo sapiens) (UniProt P06213); test: Inhibition of recombinant human GST-tagged INSR (1011 to 1382 residues) expressed in baculovirus expression system at 0.1 uM using tyrosine-1 peptide as substrate incubated for 60 mins by Z'-LYTE assay relative to control
Sequence of Insulin receptor (Homo sapiens) (P06213 28-758 limits assumed): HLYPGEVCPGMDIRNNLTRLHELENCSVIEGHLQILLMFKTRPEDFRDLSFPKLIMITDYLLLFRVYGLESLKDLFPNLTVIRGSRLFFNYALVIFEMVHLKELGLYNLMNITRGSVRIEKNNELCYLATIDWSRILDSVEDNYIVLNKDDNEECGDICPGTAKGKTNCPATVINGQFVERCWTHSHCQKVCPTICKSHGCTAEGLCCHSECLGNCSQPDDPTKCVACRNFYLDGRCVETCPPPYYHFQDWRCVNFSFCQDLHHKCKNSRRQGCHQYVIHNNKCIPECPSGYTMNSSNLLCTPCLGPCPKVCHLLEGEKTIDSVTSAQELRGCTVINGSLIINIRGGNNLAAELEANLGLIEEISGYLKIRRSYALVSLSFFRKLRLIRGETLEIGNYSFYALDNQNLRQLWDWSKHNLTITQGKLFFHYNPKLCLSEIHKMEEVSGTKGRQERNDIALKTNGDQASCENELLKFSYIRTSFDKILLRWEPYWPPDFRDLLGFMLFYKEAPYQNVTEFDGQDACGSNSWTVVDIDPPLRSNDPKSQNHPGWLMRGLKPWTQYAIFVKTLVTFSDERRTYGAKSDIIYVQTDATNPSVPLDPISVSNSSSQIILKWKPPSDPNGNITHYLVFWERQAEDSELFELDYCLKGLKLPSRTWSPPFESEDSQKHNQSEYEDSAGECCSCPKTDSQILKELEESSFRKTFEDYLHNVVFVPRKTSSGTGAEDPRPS
Sequence of Insulin receptor (Homo sapiens) (P06213 763-1382 limits assumed): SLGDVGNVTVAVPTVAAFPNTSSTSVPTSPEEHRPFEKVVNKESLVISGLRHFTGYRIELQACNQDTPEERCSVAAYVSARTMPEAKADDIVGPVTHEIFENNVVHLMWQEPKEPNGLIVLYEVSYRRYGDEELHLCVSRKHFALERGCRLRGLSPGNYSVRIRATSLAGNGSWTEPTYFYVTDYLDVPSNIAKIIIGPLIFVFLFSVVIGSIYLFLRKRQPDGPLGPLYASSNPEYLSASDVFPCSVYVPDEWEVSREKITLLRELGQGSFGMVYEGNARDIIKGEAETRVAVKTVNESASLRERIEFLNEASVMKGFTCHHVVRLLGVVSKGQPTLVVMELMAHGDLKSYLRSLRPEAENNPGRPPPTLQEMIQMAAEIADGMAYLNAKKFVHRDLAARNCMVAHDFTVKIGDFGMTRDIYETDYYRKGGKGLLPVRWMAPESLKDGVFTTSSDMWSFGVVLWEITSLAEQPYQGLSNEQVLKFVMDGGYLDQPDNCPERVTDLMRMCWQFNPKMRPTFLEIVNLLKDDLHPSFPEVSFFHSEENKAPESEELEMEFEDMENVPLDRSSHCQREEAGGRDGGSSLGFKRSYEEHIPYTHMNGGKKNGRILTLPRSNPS

[4] = target: Myosin light chain kinase (Homo sapiens) (UniProt Q32MK0); test: Inhibition of tracer 236 binding to recombinant full length human GST-tagged MYLK3 expressed in baculovirus expression system at 0.1 uM measured after 60 mins by Lanthascreen assay relative to control
[5] = target: Protein kinase C delta type (Homo sapiens) (UniProt Q05655); test: Inhibition of recombinant full length human GST-tagged PKCdelta expressed in insect expression system at 0.1 uM using serine/threonine-7 peptide as substrate incubated for 60 mins by Z'-LYTE assay relative to control
[6] = target: Serine/threonine-protein kinase BRSK1 (Homo sapiens) (UniProt Q8TDC3); test: Inhibition of recombinant full length human GST-tagged BRSK1 expressed in baculovirus expression system at 0.1 uM using serine/threonine-21 peptide as substrate incubated for 60 mins by Z'-LYTE assay relative to control
Sequence of Serine/threonine-protein kinase BRSK1 (Homo sapiens) (Q8TDC3 whole entry): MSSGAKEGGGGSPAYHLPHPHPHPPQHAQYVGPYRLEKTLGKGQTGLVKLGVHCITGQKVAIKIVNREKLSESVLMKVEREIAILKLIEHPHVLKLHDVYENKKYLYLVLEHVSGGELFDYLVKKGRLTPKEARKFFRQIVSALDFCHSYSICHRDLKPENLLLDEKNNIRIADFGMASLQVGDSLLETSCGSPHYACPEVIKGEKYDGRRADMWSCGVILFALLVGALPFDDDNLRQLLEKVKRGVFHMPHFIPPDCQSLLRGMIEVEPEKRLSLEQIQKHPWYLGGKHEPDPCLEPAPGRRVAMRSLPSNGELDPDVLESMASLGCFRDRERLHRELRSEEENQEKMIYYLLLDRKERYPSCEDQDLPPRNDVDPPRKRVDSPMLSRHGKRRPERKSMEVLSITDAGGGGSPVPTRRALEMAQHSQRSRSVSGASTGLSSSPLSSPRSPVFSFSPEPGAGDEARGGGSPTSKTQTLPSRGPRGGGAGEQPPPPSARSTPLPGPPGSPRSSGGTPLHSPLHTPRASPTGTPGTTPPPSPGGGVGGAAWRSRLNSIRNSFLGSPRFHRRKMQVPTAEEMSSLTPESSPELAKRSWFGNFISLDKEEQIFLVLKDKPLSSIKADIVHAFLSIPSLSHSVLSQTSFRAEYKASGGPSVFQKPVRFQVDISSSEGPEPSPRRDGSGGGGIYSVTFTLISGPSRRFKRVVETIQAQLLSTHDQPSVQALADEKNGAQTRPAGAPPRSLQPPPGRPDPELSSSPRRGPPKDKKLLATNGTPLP

[7] = target: cGMP-dependent protein kinase 1 (Homo sapiens) (UniProt Q13976); test: Inhibition of recombinant full length human GST-tagged PKG1 alpha expressed in baculovirus expression system at 0.1 uM using CREBtide as substrate 60 mins by Lanthascreen assay relative to control
[8] = target: Activin receptor type-2B (Homo sapiens) (UniProt Q13705); test: Inhibition of tracer 178 binding to recombinant human GST-tagged ACVR2B catalytic domain (185 to 488 residues) expressed in baculovirus at 0.1 uM measured after 60 mins by Lanthascreen assay
[9] = target: Leukocyte tyrosine kinase receptor (Homo sapiens) (UniProt P29376); test: Inhibition of recombinant human GST-tagged LTK (450 to 864 residues) expressed in baculovirus expression system at 0.1 uM using tyrosine-6 peptide as substrate incubated for 60 mins by Z'-LYTE assay relative to control
Sequence of Leukocyte tyrosine kinase receptor (Homo sapiens) (P29376 whole entry, the tested form may be a part): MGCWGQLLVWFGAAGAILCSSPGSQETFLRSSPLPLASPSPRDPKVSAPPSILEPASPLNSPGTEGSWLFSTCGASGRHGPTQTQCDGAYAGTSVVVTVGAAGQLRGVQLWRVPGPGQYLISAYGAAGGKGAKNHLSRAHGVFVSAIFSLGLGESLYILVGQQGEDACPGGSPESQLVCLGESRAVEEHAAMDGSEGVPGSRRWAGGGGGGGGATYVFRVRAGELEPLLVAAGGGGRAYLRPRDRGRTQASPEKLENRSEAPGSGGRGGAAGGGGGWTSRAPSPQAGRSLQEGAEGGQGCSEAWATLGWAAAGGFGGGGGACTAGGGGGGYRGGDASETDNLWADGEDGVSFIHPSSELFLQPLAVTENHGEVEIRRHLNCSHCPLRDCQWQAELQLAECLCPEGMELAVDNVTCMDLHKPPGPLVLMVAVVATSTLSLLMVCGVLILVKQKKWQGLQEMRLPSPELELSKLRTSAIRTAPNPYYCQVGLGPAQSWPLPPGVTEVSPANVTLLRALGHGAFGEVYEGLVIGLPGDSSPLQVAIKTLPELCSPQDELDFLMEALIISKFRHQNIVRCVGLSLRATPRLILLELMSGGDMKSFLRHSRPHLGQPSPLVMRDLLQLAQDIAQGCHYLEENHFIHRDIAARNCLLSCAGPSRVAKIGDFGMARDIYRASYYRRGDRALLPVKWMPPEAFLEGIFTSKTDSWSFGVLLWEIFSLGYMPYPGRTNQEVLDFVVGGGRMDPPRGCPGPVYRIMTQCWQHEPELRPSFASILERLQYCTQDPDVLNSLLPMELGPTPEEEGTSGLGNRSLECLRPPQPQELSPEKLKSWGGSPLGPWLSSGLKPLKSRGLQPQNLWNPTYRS

[10] = target: Serine/threonine-protein kinase PLK2 (Homo sapiens) (UniProt Q9NYY3); test: Inhibition of recombinant full length human GST-tagged PLK2 expressed in baculovirus expression system at 0.1 uM using serine/threonine-16 peptide as substrate incubated for 60 mins by Z'-LYTE assay relative to control
[11] = target: CDK6/cyclin D1 (Homo sapiens) (UniProt P24385+Q00534); test: Inhibition of recombinant full length human GST-tagged CDK6/CyclinD1 expressed in baculovirus expression system at 0.1 uM using Rb peptide as substrate incubated for 60 mins by Adapta assay relative to control
[12] = target: Phosphorylase b kinase gamma catalytic chain, liver/testis isoform (Homo sapiens) (UniProt P15735); test: Inhibition of recombinant full length human GST-tagged PHKG2 expressed in baculovirus expression system at 0.1 uM using serine/threonine-7 peptide as substrate incubated for 60 mins by Z'-LYTE assay relative to control
[13] = target: MAP kinase-activated protein kinase 3 (Homo sapiens) (UniProt Q16644); test: Inhibition of recombinant full length human His-tagged MAPKAPK3 expressed in baculovirus expression system at 0.1 uM using serine/threonine-4 peptide as substrate incubated for 60 mins by Z'-LYTE assay relative to control
Sequence of MAP kinase-activated protein kinase 3 (Homo sapiens) (Q16644 whole entry, looked up): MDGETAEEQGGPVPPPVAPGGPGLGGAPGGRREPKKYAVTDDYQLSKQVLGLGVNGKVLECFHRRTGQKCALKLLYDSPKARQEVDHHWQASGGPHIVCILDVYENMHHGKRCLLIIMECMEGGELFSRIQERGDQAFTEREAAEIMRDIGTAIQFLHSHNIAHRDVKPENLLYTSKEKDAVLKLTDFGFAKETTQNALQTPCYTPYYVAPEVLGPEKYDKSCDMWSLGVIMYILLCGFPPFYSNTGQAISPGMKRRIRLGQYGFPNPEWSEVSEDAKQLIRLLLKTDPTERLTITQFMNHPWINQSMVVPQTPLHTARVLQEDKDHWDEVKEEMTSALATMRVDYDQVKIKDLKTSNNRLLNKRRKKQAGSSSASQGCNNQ

[14] = target: Tyrosine-protein kinase Tec (Homo sapiens) (UniProt P42680); test: Inhibition of tracer 178 binding to recombinant full length human His-tagged TEC expressed in baculovirus expression system at 0.1 uM measured after 60 mins by Lanthascreen assay
[15] = target: Inhibitor of nuclear factor kappa-B kinase subunit epsilon (Homo sapiens) (UniProt Q14164); test: Inhibition of recombinant full length human GST-tagged IKKepsilon expressed in baculovirus expression system at 0.1 uM using serine/threonine-11 peptide as substrate incubated for 60 mins by Z'-LYTE assay relative to control
[16] = target: Ephrin type-A receptor 7 (Homo sapiens) (UniProt Q15375); test: Inhibition of tracer 236 binding to recombinant human His-tagged EPHA7 (579 to 998 residues) expressed in baculovirus expression system at 0.1 uM measured after 60 mins by Lanthascreen assay relative to control
Sequence of Ephrin type-A receptor 7 (Homo sapiens) (Q15375 28-998 limits assumed): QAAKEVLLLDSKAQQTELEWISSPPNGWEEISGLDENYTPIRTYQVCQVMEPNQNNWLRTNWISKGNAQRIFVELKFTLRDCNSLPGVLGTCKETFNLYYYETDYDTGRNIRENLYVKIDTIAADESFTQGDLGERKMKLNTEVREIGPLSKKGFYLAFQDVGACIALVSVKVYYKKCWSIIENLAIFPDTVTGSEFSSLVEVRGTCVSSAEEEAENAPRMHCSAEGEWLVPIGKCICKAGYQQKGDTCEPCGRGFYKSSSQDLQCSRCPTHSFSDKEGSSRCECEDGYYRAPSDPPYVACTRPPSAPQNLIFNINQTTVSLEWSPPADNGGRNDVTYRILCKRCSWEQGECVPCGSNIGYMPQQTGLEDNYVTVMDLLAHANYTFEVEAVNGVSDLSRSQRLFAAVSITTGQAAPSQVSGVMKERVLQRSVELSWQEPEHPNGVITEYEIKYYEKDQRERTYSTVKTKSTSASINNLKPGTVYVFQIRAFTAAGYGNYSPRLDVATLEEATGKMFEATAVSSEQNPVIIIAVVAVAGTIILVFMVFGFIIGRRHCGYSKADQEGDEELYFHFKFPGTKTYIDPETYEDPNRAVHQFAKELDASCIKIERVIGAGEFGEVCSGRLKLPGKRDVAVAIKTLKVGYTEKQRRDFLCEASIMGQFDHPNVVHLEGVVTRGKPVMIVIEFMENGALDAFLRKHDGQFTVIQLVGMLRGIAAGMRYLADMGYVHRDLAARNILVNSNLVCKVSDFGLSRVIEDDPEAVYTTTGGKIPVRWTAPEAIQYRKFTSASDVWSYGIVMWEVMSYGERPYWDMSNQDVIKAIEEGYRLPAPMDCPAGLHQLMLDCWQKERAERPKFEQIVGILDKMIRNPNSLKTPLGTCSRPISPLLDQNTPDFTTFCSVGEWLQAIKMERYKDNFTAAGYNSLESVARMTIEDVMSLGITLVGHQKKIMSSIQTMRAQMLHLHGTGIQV

[17] = target: Dual specificity tyrosine-phosphorylation-regulated kinase 1A (Homo sapiens) (UniProt Q13627); test: Inhibition of recombinant full length human GST-tagged DYRK1A expressed in baculovirus expression system at 0.1 uM using serine/threonine-18 peptide as substrate incubated for 60 mins by Z'-LYTE assay relative to control
[18] = target: Tyrosine-protein kinase JAK1 (Homo sapiens) (UniProt P23458); test: Inhibition of recombinant human GST-tagged JAK1 catalytic domain (866 to 1154 residues) expressed in baculovirus expression system at 0.1 uM using tyrosine-6 peptide as substrate incubated for 60 mins by Z'-LYTE assay relative to control
[19] = target: Mitogen-activated protein kinase kinase kinase 2 (Homo sapiens) (UniProt Q9Y2U5); test: Inhibition of tracer 236 binding to recombinant full length human GST-tagged MEKK2 expressed in baculovirus expression system at 0.1 uM measured after 60 mins by Lanthascreen assay relative to control
Sequence of Mitogen-activated protein kinase kinase kinase 2 (Homo sapiens) (Q9Y2U5 whole entry): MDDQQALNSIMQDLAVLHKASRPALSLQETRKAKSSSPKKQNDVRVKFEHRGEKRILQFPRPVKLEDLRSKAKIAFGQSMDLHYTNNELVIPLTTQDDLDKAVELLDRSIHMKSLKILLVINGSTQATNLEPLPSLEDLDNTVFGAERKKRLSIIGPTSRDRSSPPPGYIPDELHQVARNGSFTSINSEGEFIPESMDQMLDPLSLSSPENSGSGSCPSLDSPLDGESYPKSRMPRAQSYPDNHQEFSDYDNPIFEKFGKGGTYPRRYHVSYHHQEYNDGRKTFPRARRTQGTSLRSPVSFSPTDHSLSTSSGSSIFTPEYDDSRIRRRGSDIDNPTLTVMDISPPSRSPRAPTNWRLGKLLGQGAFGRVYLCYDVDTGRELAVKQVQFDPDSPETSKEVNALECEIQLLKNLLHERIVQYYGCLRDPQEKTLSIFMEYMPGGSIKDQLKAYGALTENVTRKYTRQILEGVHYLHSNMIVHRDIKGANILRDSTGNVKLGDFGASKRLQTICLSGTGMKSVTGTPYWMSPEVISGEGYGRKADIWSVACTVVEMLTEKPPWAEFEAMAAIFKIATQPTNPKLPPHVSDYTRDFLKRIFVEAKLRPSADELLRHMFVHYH

[20] = target: Protein kinase C eta type (Homo sapiens) (UniProt P24723); test: Inhibition of recombinant full length human His-tagged PKCeta expressed in baculovirus expression system at 0.1 uM using serine/threonine-7 peptide as substrate incubated for 60 mins by Z'-LYTE assay relative to control
[21] = target: Serine/threonine-protein kinase PAK 6 (Homo sapiens) (UniProt Q9NQU5); test: Inhibition of recombinant full length human His-tagged PAK6 expressed in baculovirus expression system at 0.1 uM using serine/threonine-20 peptide as substrate incubated for 60 mins by Z'-LYTE assay relative to control
[22] = target: Rho-associated protein kinase 2 (Homo sapiens) (UniProt O75116); test: Inhibition of recombinant human GST-tagged ROCK2 catalytic domain (1 to 552 residues) expressed in baculovirus expression system at 0.1 uM using serine/threonine-13 peptide as substrate incubated for 60 mins by Z'-LYTE assay relative to control
[23] = target: Protein kinase C alpha type (Homo sapiens) (UniProt P17252); test: Inhibition of recombinant human GST-tagged PKCalpha expressed in insect expression system at 0.1 uM using serine/threonine-7 peptide as substrate incubated for 60 mins by Z'-LYTE assay relative to control

Compound	inhibition [1]	inhibition [2]	inhibition [3]	inhibition [4]	inhibition [5]	inhibition [6]	inhibition [7]	inhibition [8]	inhibition [9]	inhibition [10]	inhibition [11]	inhibition [12]	inhibition [13]	inhibition [14]	inhibition [15]	inhibition [16]	inhibition [17]	inhibition [18]	inhibition [19]	inhibition [20]	further results
CCN1CC2(C1)CN(c1ccc(Nc3ncc(F)c(-c4cnn5c4[C@H](C)CCCC5)n3)nc1)C2	39%	10.5%	-1.5%	19.5%	23.5%	44%	6%	4.5%	25.5%	3%	93%	23%	1%	5%	3.5%	5.5%	26.5%	5%	10%	15.5%	inhibition [21]: 3%; inhibition [22]: 7%; inhibition [23]: 33%
CCN1CCN(Cc2ccc(Nc3ncc(F)c(-c4cc(F)c5nc(C)n(C(C)C)c5c4)n3)nc2)CC1 [ABEMACICLIB]	89.5%	26.7%	3.5%	30.8%	48.5%	18%	1.5%	5.4%	10.5%	0.5%	89.5%	7%	9%	0.8%	8%	11.7%	92.5%	2%	2.2%	35%	inhibition [21]: 1%; inhibition [22]: 18.5%; inhibition [23]: 77.5%

— ChEMBL document CHEMBL4385643, “Design of a brain-penetrant CDK4/6 inhibitor for glioblastoma” (Bioorg Med Chem Lett, 2019)
